From ChEMBL document CHEMBL3352346, “Optimization of sphingosine-1-phosphate-1 receptor agonists: effects of acidic, basic, and zwitterionic chemotypes on pharmacokinetic and pharmacodynamic profiles” (J Med Chem, 2014)
Values after ≈ are worked out from the molar mass of the structure shown. Active and inactive are the calls of the source. The rule behind the calls is not given here.

Assays:
[1] = molecular target: Sphingosine 1-phosphate receptor 1 (Homo sapiens, UniProt P21453); experiment: Agonist activity at human S1P1R expressed in RH7777 membranes assessed as [35S]GTPgammaS binding after 30 mins; type: functional, cell membranes
Sequence of Sphingosine 1-phosphate receptor 1 (P21453 whole entry): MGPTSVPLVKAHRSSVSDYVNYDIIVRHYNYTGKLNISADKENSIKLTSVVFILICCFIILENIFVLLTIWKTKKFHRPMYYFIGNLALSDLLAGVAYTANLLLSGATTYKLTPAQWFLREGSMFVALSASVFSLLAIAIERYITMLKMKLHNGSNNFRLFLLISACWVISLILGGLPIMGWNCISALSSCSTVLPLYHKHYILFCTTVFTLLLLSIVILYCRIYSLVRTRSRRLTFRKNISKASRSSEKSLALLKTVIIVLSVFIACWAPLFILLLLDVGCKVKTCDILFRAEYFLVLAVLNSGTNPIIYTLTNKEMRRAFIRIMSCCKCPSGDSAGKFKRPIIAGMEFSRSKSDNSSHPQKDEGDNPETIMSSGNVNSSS

[2] = molecular target: Sphingosine 1-phosphate receptor 3 (Homo sapiens, UniProt Q99500); experiment: Agonist activity at human S1P3R expressed in RBL membranes assessed as [35S]GTPgammaS binding after 30 mins; type: functional, cell membranes
Sequence of Sphingosine 1-phosphate receptor 3 (Q99500 whole entry): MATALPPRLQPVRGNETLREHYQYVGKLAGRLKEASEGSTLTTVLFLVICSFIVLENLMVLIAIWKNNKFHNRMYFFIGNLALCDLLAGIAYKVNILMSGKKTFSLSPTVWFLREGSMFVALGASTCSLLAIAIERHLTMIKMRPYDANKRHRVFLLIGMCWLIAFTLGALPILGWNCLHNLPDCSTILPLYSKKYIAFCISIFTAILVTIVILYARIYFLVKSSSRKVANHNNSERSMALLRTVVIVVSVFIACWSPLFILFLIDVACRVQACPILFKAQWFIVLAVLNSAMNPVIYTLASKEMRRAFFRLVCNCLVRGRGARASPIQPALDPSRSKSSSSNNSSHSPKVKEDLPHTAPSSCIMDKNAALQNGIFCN

Albumin = Albumin (Homo sapiens, UniProt P02768); experiment: Fraction unbound as a percentage in human serum albumin; type: ADME
Sequence of Albumin (P02768 whole entry): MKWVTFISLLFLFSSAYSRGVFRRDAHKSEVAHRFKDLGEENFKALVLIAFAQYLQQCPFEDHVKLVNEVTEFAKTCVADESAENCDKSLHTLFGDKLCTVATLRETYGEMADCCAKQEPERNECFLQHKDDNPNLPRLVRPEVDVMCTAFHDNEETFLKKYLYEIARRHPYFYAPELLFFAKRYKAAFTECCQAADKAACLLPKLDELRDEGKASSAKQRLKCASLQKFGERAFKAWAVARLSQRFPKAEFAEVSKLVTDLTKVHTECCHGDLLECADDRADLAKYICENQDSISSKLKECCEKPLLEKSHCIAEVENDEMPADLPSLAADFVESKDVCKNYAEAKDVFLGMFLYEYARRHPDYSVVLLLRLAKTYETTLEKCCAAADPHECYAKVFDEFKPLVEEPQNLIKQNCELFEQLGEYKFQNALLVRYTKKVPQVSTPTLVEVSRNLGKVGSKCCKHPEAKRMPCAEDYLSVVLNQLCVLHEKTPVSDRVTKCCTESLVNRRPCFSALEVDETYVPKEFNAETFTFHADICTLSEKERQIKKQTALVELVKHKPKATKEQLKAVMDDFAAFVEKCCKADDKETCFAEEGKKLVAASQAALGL

[3] = Chromatographic hydrophobicity index, log D of the compound at pH 2; type: physicochemical; conditions: buffer
[4] = Chromatographic hydrophobicity index, log D of the compound at pH 7.4; type: physicochemical; conditions: buffer
[5] = Chromatographic hydrophobicity index, log D of the compound at pH 10.5; type: physicochemical; conditions: buffer
Rattus norvegicus [6] = experiment: Reduction of lymphocyte count in rat at 3 mg/kg, po measured at 4 hrs relative to control; type: functional
Rattus norvegicus [7] = experiment: Reduction of lymphocyte count in rat at 3 mg/kg, po measured at 8 hrs relative to control; type: functional
Rattus norvegicus [8] = experiment: Reduction of lymphocyte count in rat at 3 mg/kg, po measured at 12 hrs relative to control; type: functional
Rattus norvegicus [9] = experiment: Reduction of lymphocyte count in rat at 3 mg/kg, po measured at 24 hrs relative to control; type: functional
[10] = Solubility in fed-state simulated intestinal fluid at pH 5 after 24 hrs; type: ADME
[11] = Solubility in fed-state simulated intestinal fluid at pH 6.5 after 24 hrs; type: ADME
Cytochrome P450 1A2 = molecular target: T1, Cytochrome P450 1A2 (Homo sapiens, UniProt P05177); experiment: Inhibition of CYP1A2 (unknown origin); type: ADME
T1 sequence (P05177 whole entry): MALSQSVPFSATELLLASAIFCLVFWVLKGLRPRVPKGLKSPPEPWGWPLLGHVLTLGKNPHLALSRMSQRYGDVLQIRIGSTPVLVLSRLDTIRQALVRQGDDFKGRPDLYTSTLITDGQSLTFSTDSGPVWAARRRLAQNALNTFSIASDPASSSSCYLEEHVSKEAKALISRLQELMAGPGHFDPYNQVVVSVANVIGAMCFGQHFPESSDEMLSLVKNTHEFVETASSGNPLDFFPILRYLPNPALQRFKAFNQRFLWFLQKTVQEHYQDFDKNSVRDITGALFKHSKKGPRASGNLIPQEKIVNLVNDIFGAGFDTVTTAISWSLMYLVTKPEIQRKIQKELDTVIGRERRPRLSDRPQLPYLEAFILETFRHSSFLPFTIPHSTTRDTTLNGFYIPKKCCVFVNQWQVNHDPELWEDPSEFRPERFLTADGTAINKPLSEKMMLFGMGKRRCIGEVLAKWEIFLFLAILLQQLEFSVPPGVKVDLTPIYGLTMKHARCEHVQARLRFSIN

Cytochrome P450 2C9 = Cytochrome P450 2C9 (Homo sapiens, UniProt P11712); experiment: Inhibition of CYP2C9 (unknown origin); type: ADME
Sequence of Cytochrome P450 2C9 (P11712 whole entry): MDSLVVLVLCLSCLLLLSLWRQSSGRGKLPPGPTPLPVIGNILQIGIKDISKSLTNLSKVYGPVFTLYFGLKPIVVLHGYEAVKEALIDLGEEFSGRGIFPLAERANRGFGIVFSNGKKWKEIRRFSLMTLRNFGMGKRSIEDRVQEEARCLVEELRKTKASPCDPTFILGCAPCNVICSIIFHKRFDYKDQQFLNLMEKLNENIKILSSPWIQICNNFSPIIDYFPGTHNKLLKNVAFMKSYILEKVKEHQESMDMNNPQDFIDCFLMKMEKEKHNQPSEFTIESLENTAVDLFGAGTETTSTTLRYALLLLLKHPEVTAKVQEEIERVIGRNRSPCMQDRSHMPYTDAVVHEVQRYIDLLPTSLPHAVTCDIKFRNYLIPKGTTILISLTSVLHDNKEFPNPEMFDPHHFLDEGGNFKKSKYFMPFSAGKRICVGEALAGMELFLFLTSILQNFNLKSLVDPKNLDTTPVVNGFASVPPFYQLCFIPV

Cytochrome P450 2C19 = Cytochrome P450 2C19 (Homo sapiens, UniProt P33261); experiment: Inhibition of CYP2C19 (unknown origin); type: ADME
Sequence of Cytochrome P450 2C19 (P33261 whole entry): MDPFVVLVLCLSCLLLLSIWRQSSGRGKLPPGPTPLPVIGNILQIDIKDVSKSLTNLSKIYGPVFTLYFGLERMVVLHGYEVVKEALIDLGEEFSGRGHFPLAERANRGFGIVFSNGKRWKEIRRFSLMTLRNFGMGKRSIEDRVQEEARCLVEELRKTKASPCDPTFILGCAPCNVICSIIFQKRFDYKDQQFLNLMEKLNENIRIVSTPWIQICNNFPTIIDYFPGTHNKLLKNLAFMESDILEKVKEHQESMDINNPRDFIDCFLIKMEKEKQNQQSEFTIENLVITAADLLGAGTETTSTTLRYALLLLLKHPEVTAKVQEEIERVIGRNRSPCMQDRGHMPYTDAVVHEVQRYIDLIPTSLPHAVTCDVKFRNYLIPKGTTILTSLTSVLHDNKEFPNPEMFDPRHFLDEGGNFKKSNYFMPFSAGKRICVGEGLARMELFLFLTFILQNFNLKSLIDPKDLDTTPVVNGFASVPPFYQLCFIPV

Cytochrome P450 2D6 = Cytochrome P450 2D6 (Homo sapiens, UniProt P10635); experiment: Inhibition of CYP2D6 (unknown origin); type: ADME
Sequence of Cytochrome P450 2D6 (P10635 whole entry): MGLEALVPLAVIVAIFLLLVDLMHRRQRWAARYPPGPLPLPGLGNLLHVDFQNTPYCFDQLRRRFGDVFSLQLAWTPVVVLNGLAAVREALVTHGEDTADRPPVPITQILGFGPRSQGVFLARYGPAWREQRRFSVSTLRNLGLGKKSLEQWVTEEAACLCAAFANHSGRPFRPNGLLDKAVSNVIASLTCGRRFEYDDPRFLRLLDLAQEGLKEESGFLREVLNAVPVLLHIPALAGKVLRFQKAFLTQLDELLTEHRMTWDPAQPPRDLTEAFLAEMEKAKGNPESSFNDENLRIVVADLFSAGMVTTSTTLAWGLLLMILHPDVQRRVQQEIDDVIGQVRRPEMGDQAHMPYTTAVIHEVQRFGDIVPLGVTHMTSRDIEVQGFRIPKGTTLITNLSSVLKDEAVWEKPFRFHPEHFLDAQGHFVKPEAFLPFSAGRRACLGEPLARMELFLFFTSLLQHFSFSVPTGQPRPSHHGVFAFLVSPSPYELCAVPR

[12] = Inhibition of CYP3A4VG (unknown origin); type: ADME, Homo sapiens
[13] = Inhibition of CYP3A4VR (unknown origin); type: ADME, Homo sapiens
[14] = Permeability in MDCK cells; type: ADME, cell-based, Canis lupus familiaris; conditions: dog, read-out: permeability
Hepatocyte = experiment: Intrinsic clearance in rat hepatocyte; type: ADME, cell-based; conditions: hepatocytes
[15] = Intrinsic clearance in dog hepatocyte; type: ADME, cell-based, Canis lupus familiaris; conditions: hepatocytes
Rattus norvegicus [16] = experiment: Reduction in lymphocyte level in po dosed male Lewis rat; type: functional, organism-based; conditions: Rattus norvegicus, Lewis
[17] = Clearance in CD rat at 1 mg/kg, iv or 3 mg/kg, po using DMSO/10%(w/v) Kleptose, 0.9% saline(aq) (2%/98%); type: ADME, organism-based; conditions: in vivo
[18] = Volume of distribution at steady state in CD rat at 1 mg/kg, iv or 3 mg/kg, po using DMSO/10%(w/v) Kleptose, 0.9% saline(aq) (2%/98%); type: ADME, organism-based; conditions: in vivo, read-out: Vdss
[19] = Half life in CD rat at 1 mg/kg, iv or 3 mg/kg, po using DMSO/10%(w/v) Kleptose, 0.9% saline(aq) (2%/98%); type: ADME, organism-based; conditions: in vivo
[20] = Oral bioavailability in CD rat at 3 mg/kg using Methylcellulose(aq), 1% (w/v) suspension; type: ADME, organism-based; conditions: CD, in vivo
[21] = Clearance in Beagle dog at 1 mg/kg, iv or 2 mg/kg, po using DMSO/10%(w/v) Kleptose, 0.9% saline(aq) (2%/98%); type: ADME, organism-based, Canis lupus familiaris; conditions: in vivo
[22] = Volume of distribution at steady state in Beagle dog at 1 mg/kg, iv or 2 mg/kg, po using DMSO/10%(w/v) Kleptose, 0.9% saline(aq) (2%/98%); type: ADME, organism-based, Canis lupus familiaris; conditions: beagle, in vivo, read-out: Vdss
[23] = Half life in Beagle dog at 1 mg/kg, iv or 2 mg/kg, po using DMSO/10%(w/v) Kleptose, 0.9% saline(aq) (2%/98%); type: ADME, organism-based, Canis lupus familiaris; conditions: beagle, in vivo
[24] = Oral bioavailability in Beagle dog at 2 mg/kg using Methylcellulose(aq), 1% (w/v) suspension; type: ADME, organism-based, Canis lupus familiaris; conditions: beagle, in vivo
[25] = Solubility in simulated gastric fluid; type: ADME
[26] = Dissociation constant, pKa of the compound; type: physicochemical
Rattus norvegicus [27] = experiment: Reduction of lymphocyte count in rat at 0.3 to 3 mg/kg, po measured relative to control; type: functional, organism-based

O=C(O)c1cnn(Cc2ccc(-c3noc(-c4cc(-c5ccccc5)c(C(F)(F)F)s4)n3)cc2)c1
EC50 [1]: 0.251 µM | EC50 [2]: 1.58 µM | fraction unbound (Albumin): 0.01

CC(C)Oc1ccc(-c2nc(-c3ccc4c(c3)CN(CCC(=O)O)CCO4)no2)cc1C#N
EC50 [1]: 0.0501 µM | EC50 [2]: > 31.6 µM

CC(C)Oc1ccc(-c2nc(-c3ccc4c(c3)CNC(C(=O)O)CO4)no2)cc1Cl (configuration not stated)
EC50 [1]: 0.00501 µM | EC50 [2]: 0.794 µM

CC(C)Oc1ccc(-c2nc(-c3ccc4c(c3)CCN(CC(=O)O)CC4)no2)cc1C#N
EC50 [1]: 0.00398 µM | EC50 [2]: 2 µM

CC(C)Oc1ccc(-c2nc(-c3cccc4c3OCCNC4CCCC(=O)O)no2)cc1Cl (configuration not stated)
EC50 [1]: 0.01 µM | EC50 [2]: 25.1 µM

CC(C)Oc1ccc(-c2nc(-c3ccc4c(c3)CCN(CCC(=O)O)CC4)no2)cc1Cl
EC50 [1]: 0.00794 µM | EC50 [2]: 10 µM

CC(C)Oc1ccc(-c2nc(-c3cccc4c3CCN(CC(=O)O)C4)no2)cc1C#N
EC50 [1]: 0.00794 µM | EC50 [2]: > 31.6 µM

CC(C)Oc1ccc(-c2nc(-c3cccc4c3CNC4)no2)cc1Cl
EC50 [1]: 0.00794 µM | EC50 [2]: > 31.6 µM

CC(C)Oc1ccc(-c2nc(-c3ccc4c(c3)CNC(CCC(=O)O)CO4)no2)cc1Cl (configuration not stated)
EC50 [1]: 0.00251 µM | EC50 [2]: 0.251 µM

CC(C)Oc1ccc(-c2nc(-c3cccc4c3CCNC4CC(=O)O)no2)cc1C#N (configuration not stated)
EC50 [1]: 0.00501 µM | EC50 [2]: 12.6 µM | chromatographic logD [3]: 1.17 | chromatographic logD [4]: 1.58 | chromatographic logD [5]: 1.27 | Activity (Rattus norvegicus [6]): 46 | Activity (Rattus norvegicus [7]): 69 | Activity (Rattus norvegicus [8]): 108 | Activity (Rattus norvegicus [9]): 132

CC(C)Oc1ccc(-c2nc(-c3ccc4c(c3)CCN(CCCC(=O)O)CC4)no2)cc1C#N
EC50 [1]: 0.00794 µM | EC50 [2]: 7.94 µM | solubility at 24 h [10]: 100 µg/mL (≈ 217 µM) | solubility at 24 h [11]: 30 µg/mL (≈ 65.1 µM) | IC50 (Cytochrome P450 1A2): > 50 µM | IC50 (Cytochrome P450 2C9): > 50 µM | IC50 (Cytochrome P450 2C19): > 50 µM | IC50 (Cytochrome P450 2D6): > 50 µM | IC50 [12]: > 50 µM | IC50 [13]: > 50 µM | Papp [14]: 15 ×10⁻⁶ cm/s | CLH (Hepatocyte): < 0.85 mL/min/g | CLH [15]: < 1.7 mL/min/g | IC50 (Rattus norvegicus [16]): 0.015 µM | clearance [17]: 7 mL/min/kg | Vd [18]: 1.5 L/kg | half-life [19]: 2.6 h | bioavailability [20]: 62% | clearance [21]: 3 mL/min/kg | Vd [22]: 1.6 L/kg | half-life [23]: 8 h | bioavailability [24]: 69% | solubility [25]: 20 µg/mL (≈ 43.4 µM) | pKa [26]: 9.15 | inhibition (Rattus norvegicus [27]): Active

CC(C)Oc1ccc(-c2nc(-c3ccc4c(cnn4CCC(=O)O)c3)no2)cc1Cl
EC50 [1]: 0.0316 µM | EC50 [2]: > 31.6 µM | fraction unbound (Albumin): 0.013

CC(C)Oc1ccc(-c2nc(-c3cccc4c3CCNC4CC(=O)O)no2)cc1Cl (configuration not stated)
EC50 [1]: 0.02 µM | EC50 [2]: 5.01 µM | clearance [17]: 5 mL/min/kg | Vd [18]: 2.7 L/kg | half-life [19]: 6.7 h | bioavailability [20]: 10% | chromatographic logD [3]: 1.47 | chromatographic logD [4]: 2.02 | chromatographic logD [5]: 1.73 | Activity (Rattus norvegicus [6]): 24 | Activity (Rattus norvegicus [7]): 12 | Activity (Rattus norvegicus [8]): 58 | Activity (Rattus norvegicus [9]): 99

CC(C)Oc1ccc(-c2nc(-c3ccc4c(c3)CNCCO4)no2)cc1C#N
EC50 [1]: 0.0251 µM | EC50 [2]: 6.31 µM

CC(C)Oc1ccc(-c2nc(-c3cccc4c3CCNCC4)no2)cc1C#N
EC50 [1]: 0.002 µM | EC50 [2]: 7.94 µM

CC(C)Oc1ccc(-c2nc(-c3cccc4c3OCCNC4)no2)cc1Cl
EC50 [1]: 0.0794 µM | EC50 [2]: > 31.6 µM

CC(C)Oc1ccc(-c2nc(-c3ccc4c(c3)OCCNC4)no2)cc1C#N
EC50 [1]: 0.0794 µM | EC50 [2]: > 31.6 µM
